Here are results for four compounds from patent publication US9155723B2, “Anti-CXCR4 as a sensitizer to cancer therapeutics” (THE GENERAL HOSPITAL CORPORATION, priority 2010, dated 2015).

“Also recorded” adds a separate entry of the source. Where two headings read alike, the source gives them in different places.

One assay relates to Gr-1+ BMDCs. As to conditions: in vitro. Here is the method: (§1) Bone marrow cells were collected in heparin-mixed PBS. The cellular filtrate was washed and a layer containing mononuclear BM cells was separated using Histopaque-1083 (Sigma). For the migration assay, BM cells were separated by CD11b, F4/80, or Gr-1 magnetic microbeads (MACS-beads; Miltenyi Biotech) from VEGFR1TK+/+ and VEGFR1TK−/− mice as per manufacturer's protocol. These cells were incubated with recombinant proteins for migration assays
(§2) The migration of mononuclear CD11b+ BMDCs (2×10^6 cells per mL), F4/80+ BMDCs (8×10^5 cells per mL), and Gr-1+ BMDCs (8×10^5 cells per mL) was evaluated using a chemotaxis Boyden chamber (Neuroprobe). The upper and lower wells were separated by a […] pore size polyvinylpyrrolidone-free polycarbonate filter (Nucreopore; Costar). […] A 50-μl aliquot of the cell suspension was seeded in the upper wells and incubated for 3 h at 37° C. with 5% CO2. The number of cells that migrated through the membrane was counted.

In the next assay the test system is CD11b+ myeloid BMDCs. Put plainly: In vitro migration assay (Boyden chamber), CD11b+ myeloid BMDCs. The class given is cell-based, mouse. Here is the method:
as §1, §2
To reveal the mechanism of action of VEGFR1 and CXCR4 in myeloid BMDCs, bone marrow cells were harvested from C57BL/6 and VEGFR1 TK−/− mice and purified mononuclear myeloid BMDCs using magnetic separation for CD11b+ cells.

A further assay concerns 54A human lung tumors. As to conditions: AMD3100 osmotic pumps alone for 2 weeks, no irradiation; 54A tumors. The text has this: (§3) 54A human lung tumors were xenografted in male athymic NCr/Sed nude (nu/nu) mice, and MCa8 mouse mammary carcinomas were implanted in female syngeneic FVB mice (both subcutaneously in the hind limb; refs. 3, 11). To detect specific BMDC populations in tumors (i.e., Tie2^+CD11b^− EPCs and Tie2^+CD11b^+ TEMs), irradiated wild-type FVB mice were irradiated with 9 Gy of whole-body irradiation (WBI) followed by restorative bone marrow transplantation (BMT) from Tie2-GFP-FVB donors to create chimeric wild-type/Tie2-GFP-BMT mice (3). MCa8 tumors were implanted in these mice 6 weeks post-BMT.
(§4) Tumor size was measured with a caliper at least thrice a week. When a tumor reached 5.5 mm in mean diameter, the mouse was randomized to a treatment group. Tumors were γ-irradiated using the same dose delivered either locally alone or locally plus a sublethal WBI dose of 6 Gy. […] Unsorted BMDCs (from femurs and tibias of one tumor- and treatment-naïve donor to two recipients) or fluorescence-activated cell-sorted Sca1^−CD11b^+ (150,000-200,000 cells) or Sca1^+CD11b^+ (25,000-50,000) BMDCs (from one donor to one recipient) were i.v. infused in mice receiving LI plus WBI. […] Therapeutic efficacy was measured as the time taken for tumors to grow to 7.5 mm in diameter (i.e., 2.5-fold increase compared with the pretreatment volume).

Assay [1] has as its system MCa8 mouse mammary carcinomas. Conditions: AMD3100 osmotic pumps alone for 2 weeks, no irradiation; MCa8 tumors.
From the text: as §3, §4

In assay [2] the test system is TRAMP-C1 prostate tumors. The protocol: (§5) AMD3100 was delivered by s.c. Alzet pumps containing 10 mg/mL AMD3100 in PBS at a dose of 60 μg/day, and pumps with PBS only were used as a control. The pumps were replaced every 2 wk.
(§6) Primary tumor tissues were fixed and frozen. Sections were stained with rat antibodies against mouse CD11b, MECA 32, Gr-1 (BD Pharmingen), and F4/80 (Serotec). Cy3- or FITC-conjugated secondary antibodies were used for the detection of signals by confocal microscopy. Slides were counterstained with DAPI for nuclear staining. The number of cells was quantified by measuring the area occupied by immunostained mononuclear cells normalized by the area of DAPI-stained nuclei (i.e., unitless). Phopho-p38 MAPK level was measured by Western blotting.
(§7) Primary tumor tissues were fixed in 4% paraformaldehyde at 4° C. for 2 h, dehydrated in 30% sucrose overnight, and embedded in optimal cutting temperature (OCT) compound in frozen samples for immunofluorescence histological analyses.

A further assay relates to E0771 mammary tumors. The protocol: as §5, §6, §7
Assay [3] has as its system TRAMP-C1 prostate tumors. The protocol:
TRAMP-C1 tumors were implanted s.c. in male C57BL/6 mice, and E0771 tumors were implanted s.c. in female C57BL/6 mice after BMT and recovery and/or after BMT and Mx-Cre recombination (n=5-6 mice) (SI Materials and Methods). […] Lung tissue was isolated from mice 2-4 wk after removal of the primary tumor.
as §5
Mice ranging from 8 to 22 wk old [due to prior bone marrow transplantation (BMT) and/or recombination procedures] were used. […] All experiments were performed at least twice. Metastatic tumor volume was measure by the formula: V=small diameter×long diameter×number of microscopic metastases.
The source holds these as a separate data set.

Another assay deals with CXCL12. As to conditions: cited from earlier work.

As for `c1cc(CN2CCCNCCNCCCNCC2)ccc1CN1CCCNCCNCCCNCC1` [AMD3100, 1,1′-[1,4-phenylene-bis(methylene)]-bis-1,4,8,11-tetraazacyclotetradecane], the “rCXCL12-induced migration of Gr-1+ BMDCs” value in the assay on Gr-1+ BMDCs is on record as “reversed”. Further, in the assay on CD11b+ myeloid BMDCs (1 μg/mL of AMD3100, rCXCL12 100 ng/mL, transwell assay), the “rCXCL12-induced migration of WT myeloid BMDCs” value was “reversed”. Besides, the tumor growth entry (in the assay on 54A human lung tumors; in assay [1]) was “did not affect tumor growth” in each case. The TAM infiltration entry in the assay on TRAMP-C1 prostate tumors [2] (AMD3100 alone, TRAMP-C1) is on record as “did not affect the TAM infiltration”; with E0771 mammary tumors (AMD3100 alone) it was “did not affect the TAM infiltration”. For the same compound, the “number of total myeloid BMDCs in tumor” value was “not in TRAMP-C1 tumors” in the assay with TRAMP-C1 prostate tumors [2] (AMD3100 alone, TRAMP-C1) and “decreased the number of total myeloid BMDCs” in the assay with E0771 mammary tumors (AMD3100 alone). Moreover, the “Gr-1+ myeloid BMDC infiltration” value in the assay on TRAMP-C1 prostate tumors [2] (irrespective of VEGFR1-TK status in BMDCs, TRAMP-C1) was “decreased Gr-1+ myeloid BMDCs; also recorded: decreases Gr-1^+ BMDC infiltration”; with E0771 mammary tumors (irrespective of VEGFR1-TK status in BMDCs), “decreased Gr-1+ myeloid BMDCs; also recorded: decreases Gr-1^+ BMDC infiltration”. In the assay on TRAMP-C1 prostate tumors [2] (small (4-mm) tumors, preventive setting, TRAMP-C1 model, 8-wk-old mice), the “number of Gr-1+ BMDCs during early tumor growth” value is recorded as “significantly decreased the number of Gr-1+ BMDCs; also recorded: significantly reduces Gr-1^+ myeloid BMDC infiltration”. Besides, the “microvascular density (MVD)” value with E0771 mammary tumors (AMD3100 alone, prevention setting) is “decreased MVD”. Besides, the “lung metastatic burden after primary tumor resection” value with TRAMP-C1 prostate tumors [3] (BMT-VEGFR1^TK−/− mice, TRAMP-C1) was “significantly reduced metastatic burden”. In addition, the “growth of established tumors” value in the assay on TRAMP-C1 prostate tumors [3] (intervention setting, growth from 4 mm to ~1 cm, established TRAMP-C1) was “less substantial growth delay”.
`C[S+]([O-])c1ccc(-c2nc(-c3ccncc3)c(-c3ccc(F)cc3)[nH]2)cc1` (centres unmarked) [SB203580]: the “migration of myeloid BMDCs” value in the assay on CD11b+ myeloid BMDCs (SB203580 1 μM, rVEGF or rCXCL12, irrespective of the chemotactic stimulus) is listed as “significantly reduced the migration of myeloid BMDCs; also recorded: decreased migration of myeloid BMDCs”.
For the compound `COc1cc2c(Oc3ccc4[nH]c(C)cc4c3F)ncnc2cc1OCCCN1CCCC1` [cediranib], the “circulating CXCL12” value with CXCL12 (recurrent GBM, P < 0.001) is listed as “therapy increases”.
As for `CNC(=O)c1cc(Oc2ccc(NC(=O)Nc3ccc(Cl)c(C(F)(F)F)c3)cc2)ccn1` [sorafenib], the “circulating CXCL12” value in the assay with CXCL12 (advanced sarcoma, P < 0.01) is recorded as “therapy increases”.
